Read-outs that look alike come from different tables or passages of the source.
How the values were obtained:
FKBP12.6 = FKBP12.6 (Homo sapiens, UniProt P68106); assay: competitive fluorescence polarization assay, FKBP12.6; format: binding; details: for binding to FKBP12.6 (in words): fluorescence polarization assay
FKBP52FK1 = target: T1, FKBP52FK1 (Homo sapiens, UniProt Q02790); assay: competitive fluorescence polarization assay, FKBP52FK1; format: binding; details: Table 1 compounds tested up to 80 μM
T1 sequence (Q02790 50-138 limits assumed): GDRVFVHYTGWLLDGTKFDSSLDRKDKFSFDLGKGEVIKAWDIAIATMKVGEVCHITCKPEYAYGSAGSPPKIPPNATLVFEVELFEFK

FKBP12 = FKBP12 (Homo sapiens, UniProt P62942); assay: competitive fluorescence polarization assay, FKBP12; format: binding; details: for binding to FKBP12 (in words): fluorescence polarization assay
Sequence of FKBP12 (P62942 whole entry): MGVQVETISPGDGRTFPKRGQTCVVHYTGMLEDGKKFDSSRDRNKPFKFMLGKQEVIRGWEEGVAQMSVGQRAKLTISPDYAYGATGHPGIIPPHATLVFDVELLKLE

FKBP51FK1 [1] = target: T2, FKBP51FK1 (Homo sapiens, UniProt Q13451); assay: competitive fluorescence polarization assay, FKBP51FK1; format: binding
T2 sequence (Q13451 42-130 limits assumed): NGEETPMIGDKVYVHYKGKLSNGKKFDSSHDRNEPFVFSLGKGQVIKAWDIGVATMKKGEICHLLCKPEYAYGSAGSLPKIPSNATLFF
Description: Table S1. Ki values were determined by a competitive fluoresc ence polarization assay.
4.1 Binding curves of 13a, c and d […]

[2] = tested on: phorbol/ionomycin-induced IL8 secretion in Jurkat cells; assay: immunostimulation/suppression assay in Jurkat cells (IL8 secretion); format: cell-based, human; details: IL8 ELISA; for effect on phorbol/ionomycin-induced IL8 secretion (compound on its own): 50 ng/ml PMA and 750 ng/ml Ionomycin, six hours
Description: Importantly, unlike the pan‐selective FKBP ligand [4.3.1]16h ^[21]
5.1 Immunostimulation/suppression assays in JURKAT cells
Figure S6A. Cellular analysis of compound FK[431]-16h in Jurkat cells
150 000 Jurkat cells were seeded in a 96 well plate in 180 µl and treated for 30 minutes with 13d or FK[431]-16h at the indicated […]
Cells were pelleted and supernatant collected and stored at -80°C. The IL8 content in the s upernatant was determined using the human IL8/CXCL8 DuoSet Elisa kit (RndSystems) according to manufacturers instructions . The sample volume of supernatant was adapted to 150 µl. Optical density wa s assessed using a Tecan Spark.
(§1) 5.2 IKKα inhibition in SIM-A9 cells
(§2) Cell culture and treatments
(§3) Murine microglia SIM-A9 cells were cultured at 37 °C, 5% CO2 in Dulbecco's Modified Eagle Medium (DMEM) high glucose with GlutaMAX (Thermo Fisher Scientific, 10566016), supplemented with 1 mM sodium pyruvate (Thermo Fisher Scientific, 11360-070), 10% fetal bovine serum (PAN Biotech, P30-8500), and 1% antibiotic-antimycotic (Thermo Fisher Scientific, 15240-062).
(§4) For the preparation of whole-cell lysates, confluent SIM-A9 cell cultures treated with the indicated compounds for 16 h in the above mentioned growth medium, were washed two times with ice-cold DPBS (Thermo Fisher Scientific, 14190-144) and lysed in an appropriate volume of RIPA buffer (Thermo Fisher Scientific, 89901), freshly supplemented with 1x cOmplete™ EDTA-free protease inhibitor cocktail (Roche, 4693132001) and 1x PhosSTOP™ phosphatase inhibitor cocktail (Roche, 4906837001) for 20 min on ice.
(§5) Subsequently, samples were centrifuged for 10 min at 4°C at 13000 rpm. The resulting supernatants were transferred to new 1.5 ml reaction tubes and prepared for separation with an SDS-PAGE system and analyzed by immunoblotting.
(§6) SDS-PAGE and immunoblotting
Separation of proteins was performed with the Criterion™ Vertical Electrophoresis Cell System (Bio-Rad, 1656001) on 4–20% Criterion™ TGX™ Precast Midi Protein Gels (Bio-Rad, 5671095). […]

FKBP51FK1 [3] = target: T2, FKBP51FK1; details: values derived from literature; read-out: FKBP51FK1 K i; cited from earlier work
Source text: Table 1 Affinities of the macrocycles with amino acid containing linker determined by a competitive fluorescence polarization assay. | column: FKBP51FK1 / K i [μM]^[a]

FKBP51FK1 [4] = target: T2, FKBP51FK1; assay: isothermal titration calorimetry (ITC); format: binding
Description: 1. ITC of compounds 13a and 13d
Figure S1. A) Binding of compound 13a to FKBP51FK1 determined by isothermal titration calorimetry at 25 °C. A 20 µM solution FKBP51FK1 formulated in 20 mM
HEPES pH 8.0, 20 mM NaCl, 5% glycerol and 2% DMSO was placed in the sample cell of a PEAK-ITC instrument. The syringe was filled with a 200 µM solution of
13a formulated in the same buffer. After equilibration the compound was titrated into the sample cell by 12 injection s of 3 µl each. The obtained data was analyzed
Binding of compound 13d to FKBP51FK1 determined by isothermal titration calorimetry at 25 °C. A 13 µM solution FKBP51FK1 formulated in 20 mM HEPES pH
8.0, 20 mM NaCl, 5% glycerol and 2% DMSO was placed in the sample cell of a PEAK -ITC instrument. The syringe was filled with a 10 0 µM solution of 13d
formulated in the same buffer. After equilibration the compound was titrated into the sample cell by 12 injections of 3 µl each. The obtained data was analyzed using […]

[5] = tested on: IKKα phosphorylation in SIM-A9 cells; assay: IKKα inhibition in SIM-A9 cells (Western blot); format: cell-based, murine
Description: We next explored if the macrocyclic ligands could interfere with the cellular functions of FKBP51. We therefore treated SIM‐A9 cells, which were recently discovered as a SAFit‐sensitive cellular model for stress‐mediated secretory autophagy. ^[24] […] (Figure 2 F and S6C). […]
as §1, §2, §3, §4, §5, §6
Separation of proteins was performed with the Criterion™ Vertical Electrophoresis Cell System (Bio-Rad, 1656001) on 4–20% Criterion™ TGX™ Precast Midi Protein Gels (Bio-Rad, 5671095). Immunoblotting was performed with the Trans-Blot Turbo Transfer System (Bio-Rad, 1704150) on 0.2 µm PVDF Trans-Blot Turbo Transfer Membranes (Bio-Rad, 1704157). For immunodetection, membranes were placed in TBS, supplemented with 0.05% Tween (Sigma-Aldrich, P9416) and 5% non-fat milk (Carl Roth, T145.1) for 1 h at RT and then incubated with the primary antibody diluted in TBS-T overnight at 4°C. Following primary antibodies were used:
Phospho-IKKα S176/phospho-IKKβ S177 (1:1000, Cell Signaling Technology, 2078), IKKα (1:1000, Cell Signaling Technology, 1682) and GAPDH (1:1000, Cell Signaling Techology, 5174).
Then, immunoblots were washed and probed with horseradish peroxidase- conjugated secondary antibody (1:10000, Cell Signaling Technology, 7074) for 1 h at RT. Immunoreactive protein bands were visualized using Clarity Western ECL Substrate (Bio-Rad, 1705061) or Clarity Max Western ECL Substrate (Bio-Rad, 1705062). Determination of the band intensities was performed with […]

[6] = meta B ring substituent R6, read-out: FKBP51 Ki (Table S1)

Sequence of FKBP12.6 (P68106 whole entry): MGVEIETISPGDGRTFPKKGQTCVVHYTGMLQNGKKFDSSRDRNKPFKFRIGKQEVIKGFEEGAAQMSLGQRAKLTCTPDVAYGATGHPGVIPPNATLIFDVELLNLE

binding to FKBP12.6 (in words) (FKBP12.6) | binding to FKBP52FK1 (in words) (FKBP52FK1) | binding to FKBP12 (in words) (FKBP12) | Ki (FKBP51FK1 [1]; [6]) [nM] | Ki (FKBP12.6; competitive fluorescence polarization assay, >80 μM = highest measurable concentration before compound precipitation, ± = standard error from three independent measurements, read-out: FKBP12.6 K i) [µM] | Ki (FKBP12; competitive fluorescence polarization assay, >80 μM = highest measurable concentration before compound precipitation, ± = standard error from three independent measurements, read-out: FKBP12 K i) [µM] | Kd (FKBP51FK1 [4]; 25 °C, 20 mM HEPES pH 8.0, 20 mM NaCl, 5% glycerol, 2% DMSO, one-site binding model, mean ± SD from 3 independent experiments, SD, read-out: Kd-value for FKBP51FK1 by ITC) [nM] | Kd (FKBP51FK1 [4]; isothermal calorimetry, enthalpy-driven, read-out: K d for FKBP51 by ITC) [nM] | Ki (FKBP51FK1 [1]; ± = standard error from three independent measurements [b] or error from two independent measurements [d], SEM, read-out: FKBP51FK1 K i) [nM] | SMILES | effect on phorbol/ionomycin-induced IL8 secretion (compound on its own) [2] | Ki (FKBP51FK1 [3]) [nM] | effect on the immunosuppressive activity of FK506 ([2]; 30 minutes pretreatment, then 0.2 nM FK506, PMA/Ionomycin) | concentration at which apparent maximal inhibition of IKKα phosphorylation was already reached ([5]; SIM-A9 cells, lowest tested concentration) [µM] | inhibition of IKKα phosphorylation (in words) ([5]; murine microglia SIM-A9 cells, 16 h treatment, Western blot, three (macrocycles) or six (SAFit) independent cellular assays)
no binding | no binding | no binding | 390 | – | – | – | – | – | COc1cc2cc(c1)[C@@H](CCc1ccc(OC)c(OC)c1)OC(=O)[C@@H]1CCCCN1C(=O)[C@@H](C1CCCCC1)NC(=O)C(C)(C)NC(=O)CO2 [compound 26] | – | – | – | – | –
– | – | – | – | – | – | – | – | – | C=CC[C@@H]1/C=C(\C)C[C@H](C)C[C@H](OC)[C@H]2O[C@@](O)(C(=O)C(=O)N3CCCC[C@H]3C(=O)O[C@H](/C(C)=C/[C@@H]3CC[C@@H](O)[C@H](OC)C3)[C@H](C)[C@@H](O)CC1=O)[C@H](C)C[C@@H]2OC [FK506, reference compound] | blocks | 104 | – | – | –
no binding | no binding | no binding | 370 | – | – | – | – | – | COc1ccc(CC[C@H]2OC(=O)[C@@H]3CCCCN3C(=O)[C@@H](C3CCCCC3)NC(=O)C(C)(C)NC(=O)COc3cc(O)cc2c3)cc1OC [compound 25] | – | – | – | – | –
– | – | – | 290 | > 80 | > 80 | 600 ± 100 | 600 | 400 ± 50 | COc1ccc(CC[C@H]2OC(=O)[C@@H]3CCCCN3C(=O)[C@@H](C3CCCCC3)NC(=O)C3(CC3)NC(=O)COc3cccc2c3)cc1OC [13 d] | neither immunostimulatory nor immunosuppressive | – | did not block | ≤ 1 | inhibited

— paper PMC8252719, “Macrocyclic FKBP51 Ligands Define a Transient Binding Mode with Enhanced Selectivity” (Angewandte Chemie (International Ed. in English), 2021)
